Test results taken from patent publication US12685312B2, “Sulfonamide apyrase inhibitors” (Texas Crop Science, Inc., priority 2022, dated 2026).

system: apyrase; assay: Screen for apyrase inhibitors (Method 1, in vitro phosphate-release absorbance assay); assay type: biochemical; conditions: inhibitor conc at 1 mM stock, 1 hr room temperature, absorbance 630 nm; rounded average of two assay results
Outline: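 Phosphate-release colorimetric assay (Windsor method) in 60 mM Hepes, 3 mM MgCl2, 3 mM CaCl2, 3 mM ATP, pH 6.5, with compound or DMSO control added. Released phosphate developed with ammonium molybdate and ascorbic acid/TCA, then stopped with citrate/acetic acid.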

Row | Compound | % Inhibition of Apyrase
1 | CCOc1ccc(NS(=O)(=O)c2cccc(C(=O)N3CCCc4ccccc43)c2)cc1 [I-568, N-(4-ethoxyphenyl)-3-(1,2,3,4-tetrahydroquinoline-1-carbonyl)benzenesulfonamide] | 51%
2 | Cc1ccc(C(=O)N2CCc3ccccc32)cc1S(=O)(=O)Nc1ccc(F)cc1 [I-569, N-(4-fluorophenyl)-5-(indoline-1-carbonyl)-2-methylbenzenesulfonamide] | 51%
3 | COc1cc(OC)c(NS(=O)(=O)c2ccc(C)c(C(=O)N3CCc4ccccc43)c2)cc1Cl [I-570, N-(5-chloro-2,4-dimethoxyphenyl)-3-(indoline-1-carbonyl)-4-methylbenzenesulfonamide] | 51%
4 | CC1Cc2ccccc2N1S(=O)(=O)c1cccc(C(=O)N2CCCc3cc(F)c(F)cc32)c1 (stereo not shown) [I-571, (6,7-difluoro-3,4-dihydroquinolin-1(2H)-yl)(3-((2-methylindolin-1-yl)sulfonyl)phenyl)methanone] | 51%
5 | O=C(Nc1ccccc1C(=O)N1CCCCC1)c1cccc(S(=O)(=O)N2CCc3ccccc32)c1 [I-572, 3-(indolin-1-ylsulfonyl)-N-(2-(piperidine-1-carbonyl)phenyl)benzamide] | 50%
6 | O=C(Nc1ccc2c(c1)OCCCO2)c1cccc(S(=O)(=O)Nc2ccc3c(c2)OCCO3)c1 [I-573, N-(3,4-dihydro-2H-benzo[b][1,4]dioxepin-7-yl)-3-(N-(2,3-dihydrobenzo[b][1,4]dioxin-6-yl)sulfamoyl)benzamide] | 50%
7 | Cc1ccc2c(c1)CCCN2C(=O)c1cccc(S(=O)(=O)Nc2ccccc2F)c1 [I-574, N-(2-fluorophenyl)-3-(6-methyl-1,2,3,4-tetrahydroquinoline-1-carbonyl)benzenesulfonamide] | 49%
8 | COc1ccc(NC(=O)c2cccc(S(=O)(=O)N3CCc4ccccc43)c2)c(OC)c1 [I-575, N-(2,4-dimethoxyphenyl)-3-(indolin-1-ylsulfonyl)benzamide] | 49%
9 | O=C(c1cccc(S(=O)(=O)Nc2ccc(F)cc2)c1)N1CCc2ccccc21 [I-576, N-(4-fluorophenyl)-3-(indoline-1-carbonyl)benzenesulfonamide] | 49%
10 | COc1ccc(S(=O)(=O)N2CCc3ccccc32)cc1C(=O)Nc1ccc2c(c1)OCCO2 [I-577, N-(2,3-dihydrobenzo[b][1,4]dioxin-6-yl)-5-(indolin-1-ylsulfonyl)-2-methoxybenzamide] | 48%
11 | COc1ccc(S(=O)(=O)N2CCCCC2)cc1NC(=O)c1cccc(S(=O)(=O)Nc2ccccc2OC)c1 [I-578, N-(2-methoxy-5-(piperidin-1-ylsulfonyl)phenyl)-3-(N-(2-methoxyphenyl)sulfamoyl)benzamide] | 48%
12 | CC1Cc2ccccc2N1C(=O)c1cccc(S(=O)(=O)Nc2cc(C(F)(F)F)ccc2Cl)c1 (stereo not shown) [I-579, N-(2-chloro-5-(trifluoromethyl)phenyl)-3-(2-methylindoline-1-carbonyl)benzenesulfonamide] | 48%
13 | COC(=O)c1cccc2c1CCCN2C(=O)c1cccc(S(=O)(=O)N(C)c2ccccc2)c1 [I-580, methyl 1-(3-(N-methyl-N-phenylsulfamoyl)benzoyl)-1,2,3,4-tetrahydroquinoline-5-carboxylate] | 47%
14 | CCOc1ccc(NC(=O)c2cc(S(=O)(=O)N3CCc4ccccc43)ccc2OC)cc1 [I-581, N-(4-ethoxyphenyl)-5-(indolin-1-ylsulfonyl)-2-methoxybenzamide] | 47%
15 | CC1Cc2ccccc2N1S(=O)(=O)c1cccc(C(=O)Nc2ccc3c(c2)OCCCO3)c1 (stereo not shown) [I-582, N-(3,4-dihydro-2H-benzo[b][1,4]dioxepin-7-yl)-3-((2-methylindolin-1-yl)sulfonyl)benzamide] | 47%
16 | Cc1nc2cc(NC(=O)c3cccc(S(=O)(=O)N4c5ccccc5CC4C)c3)ccc2o1 (stereo not shown) [I-583, N-(2-methylbenzo[d]oxazol-5-yl)-3-((2-methylindolin-1-yl)sulfonyl)benzamide] | 47%
